Laboratory results taken from patent US20030148483A1, “Method of removing residual enzymes in enzyme microencapsulation” (priority 2002, published 2003).

Assays:
Escherichia coli = assay: Effect of ozone treatment on growth of microorganisms (colony count); format: cell-based; conditions: ozone 10 ppm, 2° C.; for viability: 0 min = 100
Method: (§1) Microorganisms were treated with ozone of 10 ppm, at which concentration much of untrapped lactase loses its activity, while microencapsulated lactase retains effective activity, and effect of ozone on the growth of microorganisms was investigated.
(§2) Pathogenic microorganisms found especially in food, including Escherichia coli, Bacillus subtilis, Staphylococcus aureus, Salmonella typhimurium, Pseudomonas aeruginosa, and Enterobacter aerogenes, were obtained from Korean Culture Center of Microorganisms (Seoul, Korea) and stored in broth containing 50% glycerol at −70° C. until use. The five strains, except S. aureus, were cultured in nutrient broth (NB), and S. aureus was cultured in tryptic soy broth (TSB) for 24 hours at 37° C.
(§3) Trace amounts of the cultured microorganisms were mixed with the dispersion fluid of microcapsules, followed by treatment of ozone of 10 ppm at 2° C. under a flow rate of 10 L/min using an ozone generator.
(§4) After being serially diluted, the ozone-treated microorganisms were plated onto nutrient agar broth.

Salmonella typhimurium = assay: as above; format: cell-based; conditions: ozone 10 ppm, 2° C.; for viability: 0 min = 100
Method: as §1, §2, §3, §4

Pseudomonas aeruginosa = assay: as above; format: cell-based; conditions: ozone 10 ppm, 2° C.; for viability: 0 min = 100
Method: as §1, §2, §3, §4

Enterobacter aerogenes = assay: as above; format: cell-based; conditions: ozone 10 ppm, 2° C.; for viability: 0 min = 100
Method: as §1, §2, §3, §4

Bacillus subtilis = assay: as above; format: cell-based; conditions: ozone 10 ppm, 2° C.; for viability: 0 min = 100
Method: as §1, §2, §3, §4

Staphylococcus aureus = assay: as above; format: cell-based; conditions: ozone 10 ppm, 2° C.; for viability: 0 min = 100
Method: as §1, §2, §3, §4

uncapsulated lactase = assay: Assay for the activity of uncapsulated lactase after ozone treatment (ONPG, absorbance at 420 nm); format: biochemical; conditions: initial activity 100%
Method: After centrifuging the dispersion fluid of microcapsules prepared by ozone treatment in Examples 2 to 4 at 24,900×g for 10 min, the resulting supernatants were assayed for activity of uncapsulated lactase.
A portion of each of the supernatants was primarily filtered using Whatman No. 540 (Whatman International Ltd., Maidstone, England), and then further filtered using an 1 μm membrane filter (Whatman International Ltd., Maidstone, England).
Thereafter, 0.5 ml of the filtered supernatant was mixed with 2 ml of a solution of 0.05 M ONPG (Ortho-nitrophenol-β-D-galactopyranoside, Sigma Chemical Co., St. Louis, Mo. USA) preheated at 37° C. for 15 min, followed by incubation for 20 min at 37° C. After 20 min, the reaction was terminated with adding 0.5 ml of a 0.5 M Na2CO3 solution (Shinoyo Pure Chemical Co., Ltd., Osaka, Japan) thereto.
Absorbance at 420 nm was measured using a spectrophotometer (Beckman Du 650 spectrophotometer; Beckman Instrument, Inc, Fullerton, Calif., USA), and the results are given in FIG. 2.

[1] = test system: microencapsulated lactase; assay: Effect of ozone treatment on the activity of microencapsulated lactase (heating method, ONPG); format: biochemical; conditions: initial activity 100%
Method: With an aim to investigate effect of ozone treatment on microencapsulated lactase, microcapsules containing lactase were collected from the ozone-treated dispersion fluid prepared in Examples 2 to 4 by centrifugation, and the activity of microencapsulated lactase was measured using a heating method among yield analysis methods disclosed in Korean Pat. No. 88465.
0.5 ml of the resulting dispersion fluid containing microcapsules was mixed with 2 ml of 0.05 M ONPG pre-heated at 50° C. for 10 min. After 5 min, the reaction was terminated with adding 0.5 ml of 0.5M Na2CO3 thereto, and absorbance at 420 nm was measured using a spectrophotometer (Beckman Du 650 spectrophotometer, Beckman Instrument, Inc., Fullerton, Calif., USA). The results are given in FIG. 3, where the initial activity of lactase is 100%.
Yield of microcapsule=1−Activity of uncapsulated lactase/ Initial activity of lactase×100

Compound: O=[O+][O-] [ozone]
- colonies counted (Escherichia coli; treatment time 0.5 min): 8.9 × 10^7 CFU/ml
- viability (Escherichia coli; treatment time 0.5 min): 3.7%
- colonies counted (Escherichia coli; treatment time 1 min): 3.1 × 10^7 CFU/ml
- viability (Escherichia coli; treatment time 1 min): (1.3) %
- colonies counted (Escherichia coli; treatment time 5 min): 9.0 × 10^6 CFU/ml
- viability (Escherichia coli; treatment time 5 min): (0.3) %
- colonies counted (Escherichia coli; treatment time 10 min): 0 CFU/ml
- viability (Escherichia coli; treatment time 10 min): (0) %
- colonies counted (Salmonella typhimurium; treatment time 0.5 min): 8.4 × 10^8 CFU/ml
- viability (Salmonella typhimurium; treatment time 0.5 min): 34%
- colonies counted (Salmonella typhimurium; treatment time 1 min): 1.1 × 10^7 CFU/ml
- viability (Salmonella typhimurium; treatment time 1 min): 0.4%
- colonies counted (Salmonella typhimurium; treatment time 5 min): 1.5 × 10^6 CFU/ml
- viability (Salmonella typhimurium; treatment time 5 min): (0.06) %
- colonies counted (Salmonella typhimurium; treatment time 10 min): 0 CFU/ml
- viability (Salmonella typhimurium; treatment time 10 min): (0) %
- colonies counted (Pseudomonas aeruginosa; treatment time 0.5 min): 1.2 × 10^8 CFU/ml
- viability (Pseudomonas aeruginosa; treatment time 0.5 min): (35) %
- colonies counted (Pseudomonas aeruginosa; treatment time 1 min): 7.5 × 10^7 CFU/ml
- viability (Pseudomonas aeruginosa; treatment time 1 min): 22%
- colonies counted (Pseudomonas aeruginosa; treatment time 5 min): 3.6 × 10^6 CFU/ml
- viability (Pseudomonas aeruginosa; treatment time 5 min): 1%
- colonies counted (Pseudomonas aeruginosa; treatment time 10 min): 0 CFU/ml
- viability (Pseudomonas aeruginosa; treatment time 10 min): (0) %
- colonies counted (Enterobacter aerogenes; treatment time 0.5 min): 5.4 × 10^6 CFU/ml
- viability (Enterobacter aerogenes; treatment time 0.5 min): 38%
- colonies counted (Enterobacter aerogenes; treatment time 1 min): 1.0 × 10^6 CFU/ml
- viability (Enterobacter aerogenes; treatment time 1 min): (7.1) %
- colonies counted (Enterobacter aerogenes; treatment time 5 min): 2.4 × 10^5 CFU/ml
- viability (Enterobacter aerogenes; treatment time 5 min): (1.7) %
- colonies counted (Enterobacter aerogenes; treatment time 10 min): 0 CFU/ml
- viability (Enterobacter aerogenes; treatment time 10 min): (0) %
- colonies counted (Bacillus subtilis; treatment time 0.5 min): 9.6 × 10^7 CFU/ml
- viability (Bacillus subtilis; treatment time 0.5 min): 60%
- colonies counted (Bacillus subtilis; treatment time 1 min): 2.2 × 10^7 CFU/ml
- viability (Bacillus subtilis; treatment time 1 min): (14) %
- colonies counted (Bacillus subtilis; treatment time 5 min): 6.0 × 10^6 CFU/ml
- viability (Bacillus subtilis; treatment time 5 min): (3.7) %
- colonies counted (Bacillus subtilis; treatment time 10 min): 0 CFU/ml
- viability (Bacillus subtilis; treatment time 10 min): (0) %
- colonies counted (Staphylococcus aureus; treatment time 0.5 min): 1.0 × 10^8 CFU/ml
- viability (Staphylococcus aureus; treatment time 0.5 min): (15) %
- colonies counted (Staphylococcus aureus; treatment time 1 min): 6.4 × 10^7 CFU/ml
- viability (Staphylococcus aureus; treatment time 1 min): (9.4) %
- colonies counted (Staphylococcus aureus; treatment time 5 min): 1.2 × 10^7 CFU/ml
- viability (Staphylococcus aureus; treatment time 5 min): (1.8) %
- colonies counted (Staphylococcus aureus; treatment time 10 min): 1.1 × 10^5 CFU/ml
- viability (Staphylococcus aureus; treatment time 10 min): (0.01) %
- activity of lactase (uncapsulated) (uncapsulated lactase; 1 ppm of ozone, 1 min): about 94.3%
- activity of lactase (uncapsulated) (uncapsulated lactase; 1 ppm of ozone, 5 min): 56.4%
- activity of lactase (uncapsulated) (uncapsulated lactase; 1 ppm of ozone, 10 min): 26.5%
- activity of lactase (uncapsulated) (uncapsulated lactase; 5 ppm of ozone, 1 min): 82%
- activity of lactase (uncapsulated) (uncapsulated lactase; 5 ppm of ozone, 5 min): 42.8%
- activity of lactase (uncapsulated) (uncapsulated lactase; 5 ppm of ozone, 10 min): 20%
- activity of lactase (uncapsulated) (uncapsulated lactase; 10 ppm of ozone, 1 min): 57.8%
- activity of lactase (uncapsulated) (uncapsulated lactase; 10 ppm of ozone, 5 min): 32.8%
- activity of lactase (uncapsulated) (uncapsulated lactase; 10 ppm of ozone, 10 min): 9.7%
- activity of lactase entrapped into microcapsules ([1]; 1 ppm of ozone, 1 min): about 97%
- activity of lactase entrapped into microcapsules ([1]; 1 ppm of ozone, 5 min): 91%
- activity of lactase entrapped into microcapsules ([1]; 1 ppm of ozone, 10 min): 74%
- activity of lactase entrapped into microcapsules ([1]; 5 ppm of ozone, 1 min): 96%
- activity of lactase entrapped into microcapsules ([1]; 5 ppm of ozone, 5 min): 82%
- activity of lactase entrapped into microcapsules ([1]; 5 ppm of ozone, 10 min): 67%
- activity of lactase entrapped into microcapsules ([1]; 10 ppm of ozone, 1 min): 93%
- activity of lactase entrapped into microcapsules ([1]; 10 ppm of ozone, 5 min): 79%
- activity of lactase entrapped into microcapsules ([1]; 10 ppm of ozone, 10 min): 65%
